Assay results from the CheMixHub drug solubility set.

Assay: xn = mol fraction of the nth substance listed, in the solute-free solvent

CCOc1ccccc1C(N)=O + CC(C)O + CC#N
293.15 K
Conditions | solubility (g/100 g solution)
x2 = 0.1 | 3.74
x2 = 0.2 | 4.36
x2 = 0.3 | 4.92
x2 = 0.4 | 5.26
x2 = 0.5 | 5.44
x2 = 0.6 | 5.14
x2 = 0.7 | 4.81
x2 = 0.8 | 4.2
x2 = 0.9 | 3.48

CCOC(=O)OC1=C(c2cc(C)ccc2C)C(=O)NC12CCC(OC)CC2 (stereo not given) + CO + O
solubility (g/100 g solution)
Conditions | 278.15 K | 283.15 K | 288.15 K | 293.15 K | 298.15 K | 303.15 K | 308.15 K | 313.15 K | 318.15 K
x2 = 0.2 | 0.00416 | 0.0064 | 0.0104 | 0.0162 | 0.0253 | 0.0409 | 0.0592 | 0.0833 | 0.132
x2 = 0.4 | 0.292 | 0.365 | 0.473 | 0.613 | 0.803 | 1.07 | 1.44 | 1.9 | 2.64
x2 = 0.6 | 1.47 | 1.82 | 2.22 | 2.8 | 3.56 | 4.5 | 5.89 | 7.65 | 9.83
x2 = 0.8 | 3.55 | 4.27 | 5.22 | 6.38 | 8.03 | 10.1 | 12.7 | 15.7 | 19.2

CCOC(=O)OC1=C(c2cc(C)ccc2C)C(=O)NC12CCC(OC)CC2 (stereo not given) + CCO + O
solubility (g/100 g solution)
Conditions | 278.15 K | 283.15 K | 288.15 K | 293.15 K | 298.15 K | 303.15 K | 308.15 K | 313.15 K | 318.15 K
x2 = 0.2 | 0.0705 | 0.151 | 0.226 | 0.365 | 0.51 | 0.748 | 1.02 | 1.33 | 1.82
x2 = 0.4 | 1.44 | 1.85 | 2.31 | 2.96 | 3.91 | 5.06 | 6.59 | 8.52 | 11.1
x2 = 0.6 | 2.83 | 3.59 | 4.57 | 5.78 | 7.18 | 9.11 | 11.5 | 14.3 | 17.8
x2 = 0.8 | 3.14 | 3.95 | 4.97 | 6.19 | 7.77 | 9.63 | 12 | 15 | 18.7

C#CC1(O)CCC2C3CCC4=CC(=O)CCC4C3C(=C)CC21CC (stereo not given) + CO + O
solubility (g/100 g solution)
Conditions | x2 = 0.05881 | x2 = 0.1233 | x2 = 0.1942 | x2 = 0.2727 | x2 = 0.3599 | x2 = 0.4576 | x2 = 0.5675 | x2 = 0.6923 | x2 = 0.835
273.15 K | 0.987 | 1.09 | 1.19 | 1.31 | 1.32 | 1.44 | 1.45 | 1.62 | 3.44
278.15 K | 1.1 | 1.19 | 1.31 | 1.46 | 1.47 | 1.6 | 1.7 | 1.9 | 3.82
283.15 K | 1.2 | 1.28 | 1.43 | 1.59 | 1.61 | 1.74 | 1.95 | 2.15 | 4.22
288.15 K | 1.31 | 1.39 | 1.56 | 1.75 | 1.77 | 1.88 | 2.21 | 2.46 | 4.66
293.15 K | 1.42 | 1.49 | 1.68 | 1.91 | 1.92 | 2.03 | 2.49 | 2.8 | 5.13
298.15 K | 1.52 | 1.59 | 1.8 | 2.05 | 2.08 | 2.17 | 2.74 | 3.18 | 5.62
303.15 K | 1.62 | 1.68 | 1.91 | 2.21 | 2.23 | 2.3 | 3.01 | 3.61 | 6.16
308.15 K | 1.71 | 1.76 | 2.01 | 2.35 | 2.38 | 2.43 | 3.28 | 4.07 | 6.71
313.15 K | 1.79 | 1.84 | 2.12 | 2.48 | 2.51 | 2.54 | 3.54 | 4.52 | 7.27
318.15 K | 1.86 | 1.92 | 2.21 | 2.62 | 2.66 | 2.64 | 3.78 | 5.05 | 7.92
323.15 K | 1.93 | 1.98 | 2.29 | 2.73 | 2.78 | 2.72 | 4 | 5.59 | 8.54
